Assay results as given in paper PMC6112376, “Comprehensive Analyses and Prioritization of Tox21 10K Chemicals Affecting Mitochondrial Function by in-Depth Mechanistic Studies” (Environmental Health Perspectives, 2018).
Read-outs that look alike come from different tables or passages of the source.

Columns and labels:
rat primary hepatocytes [1] = test system: rat primary hepatocytes
HepG2 cells [2] = conditions: cited from earlier work
[3] = test system: p53 (p53-bla HCT-116 cells); assay: p53 β-lactamase reporter gene assay; type: cell-based, human; conditions: 16 h incubation; mean±SD of three experiments
[4] = test system: isolated rat liver mitochondria; assay: Oxygen consumption, Clark-type oxygen electrode; type: biochemical
HepG2 cells [5] = assay: ROS-Glo hydrogen peroxide (ROS) assay; type: cell-based, human; conditions: Homo sapiens, HepG2, 2 h, read-out: ROS (HepG2) EC50
[6] = test system: Caenorhabditis elegans strain PE255; conditions: PE255 [sur-5::luc+::gfp; rol-6(su1006)], Caenorhabditis elegans, in vivo
[7] = test system: Nrf2/ARE (ARE-bla HepG2 cells); assay: ARE β-lactamase reporter gene assay; type: cell-based, human; conditions: Homo sapiens, HepG2, 16 h, read-out: ARE (HepG2) EC50
[8] = test system: Caenorhabditis elegans strain PE255; assay: In vivo C. elegans ATP status assay; conditions: Caenorhabditis elegans, read-out: LEC LUM: lowest effect concentration for luminescence, a measure of nematode ATP content
[9] = test system: Caenorhabditis elegans (Bristol N2); assay: C. elegans larval development and growth assay; conditions: Caenorhabditis elegans, read-out: LEC EXT: lowest effect concentration for extinction, a measure of nematode size
HepG2 cells [10] = assay: cells; conditions: Homo sapiens
rat primary hepatocytes [11] = assay: MMP assay in rat primary hepatocytes; conditions: Rattus norvegicus, Hepatocyte
[12] = test system: HeLa cells expressing YFP-Parkin; assay: Parkin translocation assay; type: cell-based, human
hNSC = assay: MMP assay in human neural stem cells (hNSC); type: cell-based; conditions: Homo sapiens, Neural stem cell, 1 h, read-out: hNSC IC50 (MMP)
HepG2 cells [13] = assay: Intracellular ATP content (cell viability) assay; type: cell-based, human; conditions: Homo sapiens, HepG2, 40 h

SMILES: O=C1c2c(O)ccc([N+](=O)[O-])c2C(=O)c2c([N+](=O)[O-])ccc(O)c21 [1,8-Dihydroxy-4,5-dinitroanthraquinone]
- MMP assays efficacy (%) Rat Hepatocytes (rat primary hepatocytes [1]): -79±33%
- Rat hepatocytes (efficacy) (MMP) (rat primary hepatocytes [1]): 16.09±6.94 ( −119±28.1 ) %
- MMP assays efficacy (%) qHTS-HepG2 (HepG2 cells [2]): -86±5%
- IC50 (HepG2 cells [2]; read-out: MMP assays IC50 (µM) qHTS-HepG2): 0.07 ± 0.04 µM
- p53 (HCT-116) EC50 [3]: Inactive
- Potential Mechanism [4]: Uncoupler at low concentrations (0.8 - 4µM), and uncoupler + inhibitor at high concentrations (20-100 µM)
- I-ADP, % of control (O2 consumption rate) ([4]; 0.16 µM): 106 (52.0) % of control
- I-sub, % of control (O2 consumption rate) ([4]; 0.16 µM): 104 (16.8) % of control
- II-ADP, % of control (O2 consumption rate) ([4]; 0.16 µM): 98 (75.7) % of control
- II-sub, % of control (O2 consumption rate) ([4]; 0.16 µM): 98 (29.9) % of control
- I-ADP, % of control (O2 consumption rate) ([4]; 0.8 µM): 102 (50.0) % of control
- I-sub, % of control (O2 consumption rate) ([4]; 0.8 µM): 139 (22.3) % of control
- II-ADP, % of control (O2 consumption rate) ([4]; 0.8 µM): 102 (78.8) % of control
- II-sub, % of control (O2 consumption rate) ([4]; 0.8 µM): 132 (40.5) % of control
- I-ADP, % of control (O2 consumption rate) ([4]; 4 µM): 119 (58.8) % of control
- I-sub, % of control (O2 consumption rate) ([4]; 4 µM): 327 (52.6) % of control
- II-ADP, % of control (O2 consumption rate) ([4]; 4 µM): 104 (80.3) % of control
- II-sub, % of control (O2 consumption rate) ([4]; 4 µM): 206 (63.1) % of control
- I-ADP, % of control (O2 consumption rate) ([4]; 20 µM): 95 (47.0) % of control
- I-sub, % of control (O2 consumption rate) ([4]; 20 µM): 311 (50.0) % of control
- II-ADP, % of control (O2 consumption rate) ([4]; 20 µM): 40 (30.9) % of control
- II-sub, % of control (O2 consumption rate) ([4]; 20 µM): 108 (33.0) % of control
- I-ADP, % of control (O2 consumption rate) ([4]; 100 µM): 35 (10.0) % of control
- I-sub, % of control (O2 consumption rate) ([4]; 100 µM): 84 (10.0) % of control
- II-ADP, % of control (O2 consumption rate) ([4]; 100 µM): 49 (17.8) % of control
- II-sub, % of control (O2 consumption rate) ([4]; 100 µM): 141 (20.8) % of control
- EC50 (HepG2 cells [5]): 34.3 µM
- LEC (lowest effect concentration), ATP assay [6]: ≤ 10 µM
- EC50 [7]: 2.43 ± 1.38 µM
- minimal effective concentration [8]: 10 µM
- minimal effective concentration [9]: 75 µM
- IC50 (HepG2 cells [10]; HepG2, 1 h, read-out: HepG2 IC50 Galactose (MMP)): 2.81 µM
- IC50 (HepG2 cells [10]; HepG2, 1 h, read-out: HepG2 IC50 Glucose (MMP)): 1.79 µM
- IC50 (HepG2 cells [10]; HepG2, read-out: MMP assays IC50 (µM) HepG2): 0.45 µM
- Emax (HepG2 cells [10]; HepG2, read-out: MMP assays efficacy (%) HepG2): 86%
- IC50 (rat primary hepatocytes [11]; 1 h, read-out: Rat hepatocytes IC50 (MMP)): 16.1 µM
- IC50 (rat primary hepatocytes [11]; read-out: MMP assays IC50 (µM) Rat Hepatocytes): 5.69 ± 2.62 µM
- Parkin recruitment [12]: Inactive
- IC50 (hNSC): 3 µM
- IC50 (HepG2 cells [13]; read-out: ATP (HepG2, galactose) IC50): 17 µM
- IC50 (HepG2 cells [13]; read-out: ATP (HepG2, glucose) IC50): 27 µM
